Molecules are shown by their SMILES.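 Compound exposure: 48 hours, 5 concentrations, 96-well plates. TGI marks complete inhibition of growth.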

This note sets out measurements from PubChem BioAssay (NCI).

Test in all cases: growth of human tumour cells (NCI), 48 h
For assay [1], the system named is SK-MEL-2 melanoma.
For assay [2], the system named is NCI/ADR-RES ovarian.
Assay [3] concerns UO-31 renal.
In assay [4] the test system is HT29 colon.
In assay [5] the test system is NCI-H460 lung.
The test system of assay [6] is NCI-H522 lung.
Assay [7] concerns HCC-2998 colon.
Assay [8] deals with ACHN renal.
Assay [9] relates to SK-OV-3 ovarian.
Assay [10] has as its system T-47D breast.
In assay [11] the test system is SN12C renal.
In assay [12] the test system is OVCAR-8 ovarian.
Assay [13] concerns EKVX NSCLC.
Assay [14] has as its system DU-145 prostate.
In assay [15] the test system is NCI-H23 lung.
In assay [16] the test system is K-562 leukemia.
Assay [17] concerns SF-268 CNS.
In assay [18] the test system is HOP-92 NSCLC.
Assay [19] has as its system HL-60(TB) leukemia.

On to `O=C1C[C@H]2[C@@H](O1)[C@@H](O)CN1C(=O)c3ccccc3[C@H]21`, for which the TGI in assay [1], in assay [2], in assay [3], in assay [4], in assay [5] and in [6] was over 100 µM each time. The TGI in assay [7], in [8], in assay [9], in assay [10], in assay [11] and in assay [12] was over 100 µM each time. Further, the TGI in assay [13], in [14], in assay [15], in assay [16] and in [17] was over 100 µM in each case.

`CC1C[C@]2(C)C(=O)Nc3ccccc3[C@@H]2Nc2ccccc21` (some centres not stated): the TGI is 45 µM in assay [1]; 46.5 µM in assay [2]; 27.6 µM in assay [18]; over 100 µM in assay [3]; 30 µM in assay [4]; 65.8 µM in [5]. Besides, the TGI is 61 µM in assay [19]; 88.5 µM in [7]; over 100 µM in assay [8]; over 100 µM in assay [10]; 37.6 µM in assay [11]; 28.9 µM in assay [12]. Moreover, the TGI was 81.8 µM in assay [13]; over 100 µM in [14]; 54.8 µM in assay [15]; over 100 µM in assay [16]; over 100 µM in [17].

Regarding `Cn1c(N)c2c3c(sc2nc1=O)CCCC3`, the TGI in [1], in [2], in assay [3], in assay [4], in assay [5] and in assay [19] was over 75 µM in each case. The TGI in assay [6], in [7], in [8], in [10], in [11] and in assay [12] was over 75 µM in each case. Further, the TGI in [13], in assay [14], in assay [15], in assay [16] and in assay [17] was over 75 µM in each case.

For the molecule `COc1ccc(CCN=C2OCc3ccccc32)cc1OC`, the TGI in assay [1], in assay [2], in [18], in assay [3], in assay [4] and in [5] was over 100 µM throughout. The TGI is 32.6 µM in assay [19]; over 100 µM in assay [7]; over 100 µM in [8]; over 100 µM in assay [9]; 86.6 µM in assay [10]; over 100 µM in [11]. The TGI in [12], in assay [13], in [14], in assay [15] and in assay [16] was over 100 µM in each case.

Regarding `N#CC1(C#N)C2CCCCC23OC(=N)C1(C#N)C(c1ccccc1)O3` (configuration not stated), the TGI was 43 µM in [1]; over 100 µM in assay [2]; 33.6 µM in assay [18]; over 100 µM in assay [3]; 60.2 µM in assay [4]; 49.7 µM in assay [5]. For the same molecule, the TGI in assay [7] is 29 µM; in [8] it was over 100 µM; in [9], over 100 µM; in assay [10] it was 57.9 µM; in assay [11] it was 26.7 µM; in assay [12], 48.9 µM. In addition, the TGI in assay [13] is 60.6 µM; in assay [14], 64.3 µM; in assay [15], over 100 µM; in assay [16], over 100 µM; in assay [17], 18.1 µM.

On to `CC(=O)OC1O[C@@H](C(C)(C)O)CC[C@@H]1[C@H]1CC[C@@]2(C)C3=C(CC[C@]12C)[C@@]1(C)C[C@@H](OC(=O)CC(C)(O)CC(=O)O)[C@H](OC(C)=O)C(C)(C)C1CC3` (some centres not stated), for which the TGI in [1] turned out to be 38.7 µM; in assay [2], 33.7 µM; in assay [18], 30.8 µM; in [3], 29.4 µM; in assay [4], 36.4 µM; in assay [5] it was 32.7 µM. The TGI in [19] turned out to be 65.1 µM; in assay [7], 36.8 µM; in assay [8], 32.5 µM; in assay [9], 38.7 µM; in assay [10] it was 40.3 µM; in assay [11], 36.2 µM. Moreover, the TGI in assay [12] stood at 33.1 µM; in assay [13] it was 35.3 µM; in assay [14], 33.2 µM; in [15], 36.8 µM; in [16], 89.1 µM.

As for `COC(=O)C1C=CN(N(C)C)C2=C1C(=O)c1c(O)cccc1C2=O` (configuration not stated), the TGI in assay [1] is 7.81 µM; in assay [2], 6.47 µM; in assay [3], 15.8 µM; in assay [4], 3.61 µM; in [5], 3.03 µM; in assay [6] it was 5.95 µM. Further, the TGI was 3.67 µM in assay [7]; 12.4 µM in assay [8]; 22.7 µM in assay [9]; 6.45 µM in assay [10]; 3.95 µM in assay [11]; 7.4 µM in assay [12]. In addition, the TGI in assay [13] came to 11 µM; in assay [14], 2.96 µM; in [15], 4.11 µM; in assay [16] it was 52.1 µM; in assay [17], 17.3 µM.

For the molecule `O=C1NC(=S)NNC12c1ccccc1-c1ccccc12`, the TGI in [2], in [18], in assay [3], in assay [4], in assay [5] and in [19] was over 10 µM throughout. The TGI in assay [7], in assay [9], in assay [10], in assay [11], in [12] and in assay [13] was over 10 µM throughout. Moreover, the TGI in assay [14], in [15], in [16] and in assay [17] was over 10 µM in each case.

`CC(CCC#N)(CCC#N)C(=O)CC(O)(C(F)(F)F)C(F)(F)F`: the TGI came out at 89.2 µM in [1]; 22.7 µM in [2]; 15.6 µM in assay [18]; 13.1 µM in [3]; 28.7 µM in [4]; 39 µM in [5]. Also, the TGI was 3.99 µM in assay [19]; 31.3 µM in assay [7]; 20.2 µM in assay [8]; over 100 µM in assay [9]; 16.2 µM in [10]; 23.5 µM in [11]. Also, the TGI was 16.6 µM in [12]; 44.1 µM in assay [13]; 26.1 µM in assay [14]; 19.6 µM in assay [15]; 5.87 µM in assay [16]; over 58.8 µM in assay [17].

In the case of `CCOC(=O)c1ccc(C(=O)/C(C#N)=C2\CCCN2C)[nH]1`, the TGI in assay [1], in assay [2], in [3], in [4], in assay [5] and in assay [19] was over 100 µM in each case. Moreover, the TGI in assay [6], in assay [7], in assay [8], in assay [10], in assay [11] and in [12] was over 100 µM throughout. For the same molecule, the TGI in assay [13], in [14], in [15], in [16] and in [17] was over 100 µM each time.

Consider `CCOC(=O)c1cc(C2(O)CCN(CC(C)CC)C2=O)c(-c2cc(C)no2)[nH]1` (configuration not stated), for which the TGI in assay [1], in [2], in [18], in [3], in [4] and in assay [5] was over 100 µM each time. In addition, the TGI in assay [19], in [7], in [9], in assay [10], in assay [11] and in assay [12] was over 100 µM each time. Further, the TGI in [13], in assay [14], in assay [15], in [16] and in assay [17] was over 100 µM throughout.

For the molecule `Cc1ccsc1/C=N/Nc1ccc2ccccc2n1`, the TGI in assay [1] was over 100 µM; in assay [2], over 100 µM; in assay [18], 82 µM; in [3], over 100 µM; in [4], over 100 µM; in [19] it was 40.1 µM. In addition, the TGI in assay [7] was over 100 µM; in [8] it was over 100 µM; in assay [9], 48 µM; in assay [10], over 100 µM; in [11], over 100 µM; in assay [12], over 100 µM. Further, the TGI in assay [13], in assay [14], in assay [15], in assay [16] and in assay [17] was over 100 µM each time.

Turning to `CN1C(=O)C(CC=O)(C(C)(C)C)c2ccccc21` (configuration not stated), the TGI in [1], in assay [2], in assay [18], in assay [3], in [5] and in [19] was over 100 µM each time. Further, the TGI in assay [7], in assay [8], in [9], in assay [10], in assay [11] and in assay [14] was over 100 µM in each case. Further, the TGI in [15], in assay [16] and in [17] was over 100 µM in each case.

On to `C#CCN(CC#C)C(=O)C(=O)c1c[nH]c2ccc(OC)cc12`, for which the TGI stood at 57.7 µM in assay [2]; 33.2 µM in assay [18]; 21.1 µM in [3]; 25.3 µM in assay [4]; 29.7 µM in assay [5]; 20.5 µM in [19]. For the same molecule, the TGI in assay [7] was found to be 31 µM; in [8], 65.1 µM; in assay [9] it was 36.5 µM; in assay [10], 83.5 µM; in assay [11], 30 µM; in assay [12], 60.5 µM. Further, the TGI in assay [13] was over 100 µM; in assay [14] it was over 100 µM; in assay [15], 50.5 µM; in assay [16] it was 33.9 µM; in assay [17], over 100 µM.

On to `N#C/C(N)=C(\C#N)NC=NCc1ccccc1`, for which the TGI in assay [1], in assay [2], in assay [3], in assay [4], in assay [5] and in assay [19] was over 100 µM throughout. Also, the TGI in assay [6], in assay [7], in assay [8], in assay [9], in assay [10] and in [11] was over 100 µM in each case. For the same molecule, the TGI in assay [12], in assay [13], in assay [14], in assay [15], in [16] and in assay [17] was over 100 µM in each case.

In the case of `O=P(O)(Cc1ccccc1)c1ccccc1-c1ccccc1`, the TGI in [1], in assay [2], in [3], in assay [4], in assay [5] and in assay [19] was over 100 µM in each case. The TGI in [6], in assay [7], in assay [8], in [9], in assay [10] and in [11] was over 100 µM in each case. Also, the TGI in [12], in assay [13], in assay [14], in assay [15], in [16] and in [17] was over 100 µM throughout.
